Consider 17 compounds from US20240287063A1, “METHIONINE ADENOSYLTRANSFERASE 2A INHIBITOR” (NANJING CHIA TAI TIANQING PHARMACEUTICAL CO., LTD., priority 2021, published 2024).

Molecules are shown by their SMILES.

Test [1] relates to HCT116 MTAP−/− subcutaneous xenograft tumors. The experiment in a line: In vivo effect experiment of HCT116 MTAP−/− subcutaneous xenograft tumors in nude mice. To be noted: 50 mg/kg daily intragastric. Here is the method: Female Nu/Nu nude mice (6-8 weeks old, Beijing Vital River Laboratory Animal Technology Co., Ltd.) were raised in an SPF animal room at a temperature of 20° C.-25° C., relative humidity of 40%-70%, and light and dark lighting for 12 hours each; and animals can freely drink and eat. The animals were adaptively fed before experiment.
HCT116 MTAP^−/− cells (Horizon) were cultured in vitro for proliferation, cells in logarithmic growth phase were collected and resuspended in a serum-free RPMI-1640 medium, and the cell concentration was adjusted to 6.0×10^7 cells/mL; and 100 μL of the cell suspension was injected subcutaneously into the right anterior armpit of each nude mouse by using a 1 mL syringe, the status of the animals was observed regularly, and the growth of transplanted tumors was monitored regularly.
When the tumor volume reached 100-300 mm^3, animals with too large or too small tumor volume or uncertain tumor formation were eliminated, and tumor bearing mice with good health and similar tumor volume were selected and randomly grouped, 6 mice in each group; the administration group received daily intragastric administration (AG-270: 50 mg/kg, with a structure shown below; compound to be tested: 1-7.5 mg/kg); and the control group was intragastrically administrated with the same volume of blank solvent. In the administration period, the tumor diameter was measured twice a week, the tumor volume was calculated, the animals were weighed, and their weight was recorded.
A formula for calculating tumor volume (TV) is: Tv=½×a×b^2, wherein a represents long diameter of the tumor, and b represents short diameter of the tumor.
Experimental data is calculated and statistically processed by using Microsoft Office Excel 2007 software. Unless otherwise specified, the data were expressed as mean±standard error (Mean SEM), and t-test is used for comparison between two groups.
Growth curves of tumor volume in each group are shown in FIG. 1, results of SAM test in tumors of each group are shown in FIG. 2, and the mean tumor volume and SEM in each group are shown in Table 2 below: […]

The next test addresses T1, MAT2A enzyme (Homo sapiens, UniProt P31153).
T1 construct: purchased BPS 71401
The experiment in a line: Enzymatic testing method for MAT2A (Biomol Green, OD620). It counts as biochemical. To be noted: score by IC50 for inhibiting MAT2A; read-out: MAT2A inhibition score. The method, then: • a) A 5×MAT2A test buffer (250 mM Tris-HCl, pH 8.0; 250 mM KCl; 75 mM MgCl2; 0.025% BSA; 0.05% Brij35; 1.5 mM EDTA) was first prepared and partially diluted to 1× for later use; • b) Preparation and addition of MAT2A enzyme (BPS, 71401): the MAT2A enzyme was prepared into 3.674 ng/L by using the 1×MAT2A test buffer (1.67×, final concentration 2.20 ng/L), a BioTek (MultiFlo FX) automatic liquid separator was used, 15 μL of 1.67×MAT2A enzyme solution was added to compound test wells and negative control wells respectively, and 15 μL of 1×MAT2A test buffer was added to blank control wells; • c) Preparation and addition of a compound: a compound to be tested was diluted with DMSO from 10 mM stock solution to 100 μM, a positive drug AGI-24512 was diluted under the same conditions, and the diluted compound and positive drug were automatically sprayed into each well by using a Tecan compound titrator (D300e) according to preset concentration gradients, where the spray volume was little and negligible. The concentration gradient was initially 1 μM, the dilution was implemented by ½ log, and a total of 8 gradients were set. Centrifugation at 2500 rpm for 30 s and incubation at 25° C. for 30 min were performed; • d) Preparation of ATP: 10 mM ATP (Sigma, A7699) was diluted with 1×MAT2A test buffer to 700 μM for later use; • e) Preparation and addition of a substrate and ATP mixture: 5×MAT2A test buffer, 3 μL/well; 750 μM L-methionine (Adamas, 01100469), 2.5 μL/well; 700 μM ATP, 2.5 μL/well; and double distilled water, 2 μL/well. A total amount of required mixture was prepared according to the number of test wells, and 10 μL of the mixture was added to each well by using the BioTek (MultiFlo FX) automatic liquid separator, followed by centrifugation at 2500 rpm for 30 s and reaction at 25° C. for 150 min; • f) Addition of Biomol Green detection reagent: 50 μL of Biomol Green (Enzo, BML-AK111) was added to each well by using the BioTek (MultiFlo FX) automatic liquid separator, followed by centrifugation at 2500 rpm for 30 s and incubation at 25° C. for 20 minutes; • g) After the reaction, OD620 values were read by using a Perkin Elmer (Envision 2105) multifunctional plate reader.
A formula for calculating an inhibition rate was as follows: […]
Wherein, • % Inhibition: inhibition rate % • ODsample: OD620 value in a sample well; • ODmin: representing a mean OD620 value of blank control wells without the enzyme or compound to be tested; • ODmax: representing a mean OD620 value of negative control wells with the enzyme and without the compound.
Then a dose-effect curve log(inhibitor) vs. response-Variable slope was fitted by usingGraphPad Prism 5 software to obtain an IC50 value of compound for MAT2A enzyme inhibition.

T1 sequence (P31153 whole entry): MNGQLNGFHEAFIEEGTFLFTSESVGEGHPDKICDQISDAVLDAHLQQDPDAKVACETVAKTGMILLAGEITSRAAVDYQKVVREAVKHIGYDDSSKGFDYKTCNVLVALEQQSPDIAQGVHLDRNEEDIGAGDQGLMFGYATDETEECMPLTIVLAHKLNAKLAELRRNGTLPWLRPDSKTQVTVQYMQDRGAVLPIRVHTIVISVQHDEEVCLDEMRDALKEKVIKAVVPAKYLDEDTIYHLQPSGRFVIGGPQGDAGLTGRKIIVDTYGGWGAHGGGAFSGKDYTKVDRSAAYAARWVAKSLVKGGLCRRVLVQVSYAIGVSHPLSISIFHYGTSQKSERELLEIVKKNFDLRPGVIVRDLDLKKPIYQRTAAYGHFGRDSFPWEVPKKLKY

Take `COc1ccc(-c2c(Nc3ccccn3)[nH]c3c(C4=CCCCC4)c(-c4ccccc4)nn3c2=O)cc1` [AG-270, reference compound]: the “Tumor volume, mean volume” value in test [1] (day 1 of administration) is 154 mm^3; in test [1] (day 4 of administration) it was 189 mm^3; in test [1] (day 6 of administration), 219 mm^3; in test [1] (day 8 of administration) it was 244 mm^3; in test [1] (day 11 of administration) it was 303 mm^3; in test [1] (day 13 of administration), 369 mm^3. For the same compound, in test [1] (day 15 of administration), the “Tumor volume, mean volume” value came to 419 mm^3.

With `O=c1c(-c2ccc(OC(F)F)cc2)cn2ccc(-c3ccc(OC(F)F)cc3)cc2c1-c1ccc(OC(F)F)cc1` [Example 1, 1,3,8-tris(4-(difluoromethoxy)phenyl)-2H-quinolizin-2-one], the IC50 at MAT2A enzyme fell in the range of 50 to 200 nM.

Take `O=c1c(-c2ccc(OC(F)F)cc2)cn2ccc(Cl)cc2c1-c1ccc(OC(F)F)cc1` [Example 2, 8-chloro-1,3-bis(4-(difluoromethoxy)phenyl)-2H-quinolizin-2-one]: at MAT2A enzyme, the IC50 is below 50 nM.

Regarding `Cn1nc2ccc(-c3cn4ccc(C5CC5)cc4c(-c4ccc5nn(C)c(N)c5c4)c3=O)cc2c1N` [Example 5, 1,3-bis(3-amino-2-methyl-2H-indazol-5-yl)-8-cyclopropylquinolizin-2-one], the IC50 at MAT2A enzyme was above 1000 nM.

On to `Cn1nccc1-c1c2cc(-c3cn4ccc(C5CC5)cc4c(-c4ccc5nn(C)c(-c6ccnn6C)c5c4)c3=O)ccc2nn1C` [Example 8, 8-cyclopropyl-1,3-bis[2-methyl-3-(2-methylpyrazol-3-yl)indazol-5-yl]quinolizin-2-one], for which the IC50 on MAT2A enzyme was above 1000 nM.

On to `O=C1NC2(CC2)Cn2nc3ccc(-c4cn5ccc(NCC(F)(F)F)nc5c(-c5ccc(OC(F)F)cc5)c4=O)cc3c21` [Example 14, 9′-{9-[4-(difluoromethoxy)phenyl]-8-oxo-2-[(2,2,2-trifluoroethyl)amino]pyrido[1,2-a]pyrimidin-7-yl}-2′,4′-dihydrospiro[cyclopropane-1,3′-pyrazino[1,2-b]indazol]-1′-one], for which the IC50 at MAT2A enzyme is below 50 nM.

Take `Nc1nc2ccc(-c3cn4ccc(NCC(F)(F)F)nc4c(-c4ccc(OC(F)F)cc4)c3=O)cc2s1` [Example 18]: the IC50 on MAT2A enzyme was below 50 nM.

Take `N#CCn1cc2cc(-c3cn4ccc(NCC(F)(F)F)nc4c(-c4ccc(OC(F)F)cc4)c3=O)ccc2n1` [Example 19, 2-(5-{9-[4-(difluoromethoxy)phenyl]-8-oxo-2-[(2,2,2-trifluoroethyl)amino]pyrido[1,2-a]pyrimidin-7-yl}indazol-2-yl)acetonitrile]: the IC50 at MAT2A enzyme is below 50 nM.

As for `O=c1ccn2cc(-c3ccc(OC(F)F)cc3)c(=O)c(-c3ccc(OC(F)F)cc3)c2[nH]1` [Example 21, 7,9-bis[4-(difluoromethoxy)phenyl]-1H-pyrido[1,2-a]pyrimidin-2,8-dione], the IC50 on MAT2A enzyme was above 1000 nM.

Regarding `Cn1cc2cc(-c3cn4ccc(C5CC5)nc4c(-c4ccc5nn(C)cc5c4)c3=O)ccc2n1` [Example 29, 2-cyclopropyl-7,9-bis(2-methyl-2H-indazol-5-yl)-8H-pyrido[1,2-a]pyrimidin-8-one], the IC50 on MAT2A enzyme was above 1000 nM.

On to `O=c1c(-c2ccc3c(c2)OC(F)(F)O3)cn2ccc(C3CC3)nc2c1-c1ccc2c(c1)OC(F)(F)O2` [Example 30, 2-cyclopropyl-7,9-bis(2,2-difluoro-1,3-benzodioxol-5-yl)-8H-pyrido[1,2-a]pyrimidin-8-one], for which the IC50 on MAT2A enzyme is above 1000 nM.

For `COc1ccc(-c2cn3ccc(C4CC4)nc3c(-c3ccc(OC)c(OC)c3)c2=O)cc1OC` [Example 31, 2-cyclopropyl-7,9-bis(3,4-dimethoxyphenyl)-8H-pyrido[1,2-a]pyrimidin-8-one], the IC50 at MAT2A enzyme is above 1000 nM.

Regarding `COc1ccc(-c2cn3ccc(C4CC4)nc3c(-c3ccc4c(c3)OC(F)(F)O4)c2=O)cc1OC` [Example 33, 2-cyclopropyl-9-(2,2-difluoro-1,3-benzodioxol-5-yl)-7-(3,4-dimethoxyphenyl)-8H-pyrido[1,2-a]pyrimidin-8-one], the IC50 at MAT2A enzyme is above 1000 nM.

As for `COc1cc(-c2cn3ccc(C4CC4)nc3c(-c3ccc4c(c3)OC(F)(F)O4)c2=O)ccc1OC(F)F` [Example 34, 2-cyclopropyl-9-(2,2-difluoro-1,3-benzodioxol-5-yl)-7-[4-(difluoromethoxy)-3-methoxyphenyl]-8H-pyrido[1,2-a]pyrimidin-8-one], on MAT2A enzyme, the IC50 was above 1000 nM.

On to `O=C1NC2(CC2)Cn2nc3ccc(-c4cn5ccc(C6CC6)nc5c(-c5ccc(OC(F)F)cc5)c4=O)cc3c21` [Example 35, 9′-(2-cyclopropyl-9-(4-(difluoromethoxy)phenyl)-8-oxo-8H-pyrido[1,2-a]pyrimidin-7-yl)-4′H-spiro[cyclopropane-1,3′-pyrazino[1,2-b]indazol]-1′(2′H)-one], for which the IC50 on MAT2A enzyme is below 50 nM.

As for `COc1cc(-c2cn3ccc(C4CC4)nc3c(-c3ccc(OC(F)F)c(OC)c3)c2=O)ccc1OC(F)F` [Example 37, 2-cyclopropyl-7,9-bis(4-(difluoromethoxy)-3-methoxyphenyl)-8H-pyrido[1,2-a]pyrimidin-8-one], on MAT2A enzyme, the IC50 fell in the range of 50 to 200 nM.

Turning to `O=c1c(-c2ccc(OC(F)F)cc2)cn2c(C3CC3)ccnc2c1-c1ccc(OC(F)F)cc1` [Example 40, 4-cyclopropyl-7,9-bis[4-(difluoromethoxy)phenyl]-8H-pyrido[1,2-a]pyrimidin-8-one], the IC50 at MAT2A enzyme is above 1000 nM.
